Values of other authors in patent EP1072609A2, “Cytoprotective agents comprising prosaposin-related peptides” (Sakanaka, Masahiro, priority 1999, dated 2001).
Ends that are not written are not given here.

Key:
[1] = tested on: neurons in the ischemic penumbra of the cerebral cortex; details: intracerebroventricular infusion
[2] = intravenous administration

Molecule	cortical infarction [1]	place navigation disability [1]	expression of Bcl-xL (Bcl-xL)	share of intravenously administered peptide transferred into the brain [2]
CC(C)=CCC[C@](C)(O[C@@H]1O[C@H](CO[C@@H]2O[C@H](CO)[C@@H](O)[C@H](O)[C@H]2O)[C@@H](O)[C@H](O)[C@H]1O)[C@H]1CC[C@]2(C)[C@@H]1[C@H](O)C[C@@H]1[C@@]3(C)CC[C@H](O[C@@H]4O[C@H](CO)[C@@H](O)[C@H](O)[C@H]4O[C@@H]4O[C@H](CO)[C@@H](O)[C@H](O)[C@H]4O)C(C)(C)[C@@H]3CC[C@]12C [ginsenoside Rb1]	ameliorate	ameliorate	stimulates	
LSELIINNATEELLIKGL [18-MP]				approximately 0.03%
